The values that follow come from US7320879B2, “Method of determining site-specificity and kit therefor” (Biacore AB, priority 2002, dated 2008).

Assay [1] has as its target T1, HSA (Homo sapiens, UniProt P02768).
T1 construct: purchased Sigma A-4327
Kind of assay: SPR (BIACORE S51) competition assay for HSA-binding site specificity, dissociation-phase response of mixtures. The following applies: for effect of additional reference compounds on dissociation response of S1 on HSA: S1 constant 0.1 μM, reference 0-50 μM, d2 report point, FIG. 6.

Assay [2] deals with T1, HSA. The following applies: known site specificity of reference compounds (crystallography studies); cited from earlier work.
For assay [3], the system named is protein kinase (C-terminal His-tag). Kind of assay: SPR binding profiles of binders against captured protein kinase, single concentration. The following applies: 10 μM ATP; FIG. 8. An excerpt:
A BIACORE® S51 instrument (Biacore AB, Uppsala, Sweden) was used. This instrument has two Y-type flow cells which allow a dual flow of fluids over a sensor chip surface, so-called hydrodynamic addressing, as described in, for example, EP-B1-1021703 (the disclosure of which is incorporated by reference herein). The instrument uses three parallel detection spots on the sensor chip. As sensor chip was used Series S Sensor Chip CM5 (Biacore AB, Uppsala, Sweden) which has a gold-coated surface with a covalently linked carboxymethyl-modified dextran polymer hydrogel. The output from the instrument is a “sensorgram” which is a plot of detector response (measured in “resonance units”, RU) as a function of time. An increase of 1000 RU corresponds to an increase of mass on the sensor surface of approximately 1 ng/mm^2.
100 μg/ml of Penta-His™ antibody, BSA-free (Qiagen, Venlo, Netherlands) in 0.15 M NaCl was diluted to 30 μg/ml in 10 mM sodium acetate buffer pH 5.0 and immobilized on a Series S Sensor Chip CM5 by amine coupling according to the manufacturer's instructions. The contact time was 10 min, the flow rate was 10 μl/min, and 10 mM PBS was used as running buffer. A little less than 12000 RU of antibody were immobilized. […]

T1 sequence (P02768 25-609): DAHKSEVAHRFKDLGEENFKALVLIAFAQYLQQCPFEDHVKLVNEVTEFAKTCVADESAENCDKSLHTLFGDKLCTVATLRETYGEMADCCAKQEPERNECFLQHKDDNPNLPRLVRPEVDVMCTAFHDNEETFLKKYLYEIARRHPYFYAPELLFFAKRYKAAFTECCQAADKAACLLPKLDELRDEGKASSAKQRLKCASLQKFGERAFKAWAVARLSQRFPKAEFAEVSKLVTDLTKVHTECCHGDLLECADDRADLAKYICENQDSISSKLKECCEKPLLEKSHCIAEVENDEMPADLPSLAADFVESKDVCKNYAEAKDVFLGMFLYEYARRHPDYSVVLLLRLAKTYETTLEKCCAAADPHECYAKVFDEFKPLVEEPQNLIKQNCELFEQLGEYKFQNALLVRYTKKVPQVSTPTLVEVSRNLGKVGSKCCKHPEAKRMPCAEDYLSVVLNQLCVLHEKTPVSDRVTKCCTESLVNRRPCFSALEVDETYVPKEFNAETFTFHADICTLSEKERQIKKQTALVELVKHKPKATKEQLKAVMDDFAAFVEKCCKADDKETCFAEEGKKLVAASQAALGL

Take `O=C1NC(=O)C(c2ccccc2)(c2ccccc2)N1` [phenyloin]: in assay [1], the “effect of additional reference compounds on dissociation response of S1 on HSA” value was “follow the behaviour of warfarin and naproxen respectively”. The “known HSA-binding site” value in assay [2] is “site II”.
Take `C[C@H]1O[C@@H](O[C@H]2[C@@H](O)C[C@H](O[C@H]3[C@@H](O)C[C@H](O[C@H]4CC[C@@]5(C)[C@H](CC[C@@H]6[C@@H]5CC[C@]5(C)[C@@H](C7=CC(=O)OC7)CC[C@]65O)C4)O[C@@H]3C)O[C@@H]2C)C[C@H](O)[C@@H]1O` [digitoxin]: the “effect of the reference compound on binding/dissociation phase of S1 on HSA” value in assay [1] is on record as “does not seem to affect the dissociation phase much”.
In the case of `Nc1ncnc2c1ncn2[C@@H]1O[C@H](COP(=O)(O)OP(=O)(O)OP(=O)(O)O)[C@@H](O)[C@H]1O` [ATP, adenosine triphosphate], the “association/dissociation profile on the protein kinase” value in assay [3] was “very rapid binding and dissociation profile”.
Consider `COc1cc(NS(=O)(=O)c2ccc(N)cc2)nc(OC)n1` [sulfadimethoxine], for which the “effect of additional reference compounds on dissociation response of S1 on HSA” value in assay [1] is recorded as “deviates from the behaviour of warfarin”. The “known HSA-binding site” value in assay [2] is “site I”.
